Measured values: patent publication US20150105252A1, “SUBSTITUTED PYRAZOLES AS HERBICIDES” (E I DU PONT DE NEMOURS AND COMPANY, priority 2013, published 2015)

What was measured:
Assay in all cases: Test C postemergence
blackgrass = format: in vivo, Alopecurus myosuroides
In short: (§1)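 Visual rating, 0–100 scale (0 no effect, 100 complete control), vs untreated controls after 13–15 d greenhouse. Pre: seeds in loam/sand, treated at sowing. Post: plants in peat-based mix, 1- to 4-leaf (2–18 cm). Solvent + surfactant formulation, non-phytotoxic.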

ryegrass, Italian = format: in vivo, Lolium multiflorum
Excerpt: (§2) Seeds of plant species selected from blackgrass (Alopecurus myosuroides), ryegrass, Italian (Italian ryegrass, Lolium multiflorum), wheat (winter wheat, Triticum aestivum), galium (catchweed bedstraw, Galium aparine), corn (Zea mays), crabgrass, large (large crabgrass, Digitaria sanguinalis), foxtail, giant (giant foxtail, Setaria faberii), johnsongrass (Sorghum halepense), lambsquarters (Chenopodium album), morningglory (Ipomoea coccinea), nutsedge, yellow (yellow nutsedge, Cyperus esculentus), pigweed (redroot pigweed, Amaranthus retroflexus), ragweed (common ragweed, Ambrosia elation), soybean (Glycine max), barnyardgrass (Echinochloa crus-galli), oilseed rape (Brassica napus), waterhemp (common waterhemp, Amaranthus rudis), oat, wild (wild oat, Avena fatua), kochia (Kochia scoparia), Surinam grass (Brachiaria decumbens), foxtail, green (green foxtail, Setaria viridis), goosegrass (Eleusine indica), bromegrass, downy (downy bromegrass, Bromus tectorum), nightshade (eastern black nightshade, Solanum ptycanthum), cocklebur (common cocklebur, Xanthium strumarium), cupgrass, woolly (woolly cupgrass, Eriochloa villosa), bermudagrass (Cynodon dactylon), sunflower, (common oilseed sunflower, Helianthus annuus), Russian thistle (Salsola kali), and velvetleaf (Abutilon theophrasti) were planted into a blend of loam soil and sand and treated preemergence with test chemicals formulated in a non-phytotoxic solvent mixture which included a surfactant.
(§3) At the same time, plants selected from these crop and weed species and also chickweed (common chickweed, Stellaria media), canarygrass (littleseed canarygrass, Phalaris minor), and deadnettle (henbit deadnettle, Lamium amplexicaule), were planted in pots containing Redi-Earth® planting medium (Scotts Company, 14111 Scottslawn Road, Marysville, Ohio 43041) comprising spaghnum peat moss, vermiculite, wetting agent and starter nutrients and treated with postemergence applications of test chemicals formulated in the same manner. Plants ranged in height from 2 to 18 cm (1- to 4-leaf stage) for postemergence treatments. Treated plants and controls were maintained in a greenhouse for 13 to 15 days, after which time all species were compared to controls and visually evaluated. Plant response ratings, summarized in Table C, are based on a scale of 0 to 100 where 0 is no effect and 100 is complete control. A dash (-) response means no test result.

wheat = format: in vivo, Triticum aestivum; conditions: for Wheat plant response rating: scale 0 to 100
In short: as §1

galium = format: in vivo, Galium aparine
In short: as §1

corn = format: in vivo, Zea mays
In short: as §1

foxtail, giant = format: in vivo, Setaria faberii
In short: as §1

johnsongrass = format: in vivo, Sorghum halepense
Excerpt: as §2, §3

lambsquarters = format: in vivo, Chenopodium album; conditions: postemergence
In short: as §1

morningglory = format: in vivo, Ipomoea coccinea
Excerpt: as §2, §3

nutsedge, yellow = format: in vivo, Cyperus esculentus
In short: as §1

pigweed = format: in vivo, Amaranthus retroflexus
In short: as §1

soybean = format: in vivo, Glycine max
In short: as §1

oilseed rape = format: in vivo, Brassica napus
Excerpt: as §2, §3

waterhemp = format: in vivo, Amaranthus rudis; conditions: for Waterhemp plant response rating: scale 0 to 100
Excerpt: as §2, §3

kochia = format: in vivo, Kochia scoparia
Excerpt: as §2, §3

velvetleaf = format: in vivo, Abutilon theophrasti; conditions: for Velvetleaf plant response rating: scale 0 to 100
In short: as §1

chickweed = format: in vivo, Stellaria media
Excerpt: as §2, §3

[1] = Postemergence, 31 g ai/ha, visually evaluated after 13 to 15 days
[2] = postemergence, 62 g ai/ha, scale 0 to 100
[3] = postemergence, 250 g ai/ha, scale 0 to 100 (0 no effect, 100 complete control)
[4] = postemergence, 125 g ai/ha, scale 0 to 100, 0 no effect, 100 complete control

CCCc1cc(C(=O)NCC(F)(F)F)nn1Cc1cc(C(F)(F)F)nn1C [Compound 138]
40: Lambsquarters plant response rating (lambsquarters; 62 g ai/ha, scale 0 to 100) | Velvetleaf plant response rating (velvetleaf; postemergence, 62 g ai/ha)
5: Plant response rating (scale of 0 to 100 where 0 is no effect and 100 is complete control), Blackgrass (blackgrass; [1]) | Plant response rating (scale of 0 to 100 where 0 is no effect and 100 is complete control), Ryegrass, Italian (ryegrass, Italian; [1]) | Plant response rating, Ryegrass, Italian (ryegrass, Italian; [4]) | Plant response rating (scale of 0 to 100 where 0 is no effect and 100 is complete control), Wheat (wheat; [1]) | Wheat plant response rating (wheat; postemergence, 62 g ai/ha) | Plant response rating (scale of 0 to 100 where 0 is no effect and 100 is complete control), Foxtail, Giant (foxtail, giant; [1]) | Foxtail, Giant plant response rating (foxtail, giant; [2]) | Plant response rating, Nutsedge, Yellow (nutsedge, yellow; [3]) | Plant response rating, Nutsedge, Yellow (nutsedge, yellow; [4])
70: Galium plant response rating (galium; [2]) | Waterhemp plant response rating (waterhemp; postemergence, 62 g ai/ha) | Plant response rating (scale of 0 to 100 where 0 is no effect and 100 is complete control), Chickweed (chickweed; [1])
20: Plant response rating, Blackgrass (blackgrass; [4]) | Plant response rating, Johnsongrass (johnsongrass; [3])
15: Ryegrass, Italian plant response rating (ryegrass, Italian; [2]) | Plant response rating, Wheat (wheat; [3]) | Wheat plant response rating (wheat; postemergence) | Plant response rating (scale of 0 to 100 where 0 is no effect and 100 is complete control), Corn (corn; [1]) | Corn plant response rating (corn; [2]) | Plant response rating, Corn (corn; [4])
95: Plant response rating, Lambsquarters (lambsquarters; 250 g ai/ha, scale 0 to 100 (0 no effect, 100 complete control)) | Plant response rating, Morningglory (morningglory; [3]) | Plant response rating, Waterhemp (waterhemp; [3])
100: Waterhemp plant response rating (waterhemp; postemergence) | Plant response rating (scale of 0 to 100 where 0 is no effect and 100 is complete control), Kochia (kochia; [1])
85: Morningglory plant response rating (morningglory; [2]) | Plant response rating, Morningglory (morningglory; [4]) | Pigweed plant response rating (pigweed; [2]) | Plant response rating, Pigweed (pigweed; [3])
90: Soybean plant response rating (soybean; [4]) | Kochia plant response rating (kochia; [2]) | Plant response rating, Kochia (kochia; [3]) | Plant response rating, Kochia (kochia; [4]) | Plant response rating, Chickweed (chickweed; [3])
10: Blackgrass plant response rating (blackgrass; [2]) | Plant response rating, Ryegrass, Italian (ryegrass, Italian; [3]) | Plant response rating, Foxtail, Giant (foxtail, giant; [4]) | Plant response rating (scale of 0 to 100 where 0 is no effect and 100 is complete control), Johnsongrass (johnsongrass; [1]) | Johnsongrass plant response rating (johnsongrass; [2]) | Plant response rating, Johnsongrass (johnsongrass; [4])
0: Plant response rating (scale of 0 to 100 where 0 is no effect and 100 is complete control), Nutsedge, Yellow (nutsedge, yellow; [1]) | Nutsedge, Yellow plant response rating (nutsedge, yellow; [2])
25: Velvetleaf plant response rating (velvetleaf; postemergence)
80: Plant response rating, Galium (galium; [3]) | Plant response rating, Pigweed (pigweed; [4]) | Plant response rating, Oilseed Rape (oilseed rape; [4]) | Chickweed plant response rating (chickweed; [2]) | Plant response rating, Chickweed (chickweed; [4])
65: Plant response rating (scale of 0 to 100 where 0 is no effect and 100 is complete control), Galium (galium; [1]) | Plant response rating (scale of 0 to 100 where 0 is no effect and 100 is complete control), Soybean (soybean; [1]) | Plant response rating, Soybean (soybean; [3])
75: Plant response rating, Galium (galium; [4]) | Plant response rating, Lambsquarters (lambsquarters; 125 g ai/ha, scale 0 to 100, 0 no effect, 100 complete control) | Plant response rating (scale of 0 to 100 where 0 is no effect and 100 is complete control), Pigweed (pigweed; [1]) | Soybean plant response rating (soybean; [2]) | Plant response rating (scale of 0 to 100 where 0 is no effect and 100 is complete control), Waterhemp (waterhemp; [1])
50: Plant response rating, Blackgrass (blackgrass; [3]) | Plant response rating, Foxtail, Giant (foxtail, giant; [3]) | Plant response rating, Velvetleaf (velvetleaf; [3])
55: Plant response rating (scale of 0 to 100 where 0 is no effect and 100 is complete control), Oilseed Rape (oilseed rape; [1])
30: Plant response rating, Corn (corn; [3]) | Plant response rating (scale of 0 to 100 where 0 is no effect and 100 is complete control), Velvetleaf (velvetleaf; [1])
60: Plant response rating (scale of 0 to 100 where 0 is no effect and 100 is complete control), Morningglory (morningglory; [1]) | Oilseed Rape plant response rating (oilseed rape; [2]) | Plant response rating, Oilseed Rape (oilseed rape; [3])
